# From patent US20260041744A1, “Methods for Treating Pompe Disease” (Amicus Therapeutics, Inc., priority 2022, published 2026)
# Legend:
# [1] = tested on: adult subjects with Pompe disease; test: Pooled Studies ATB200-02/03/07 (Pool 2): 6MWD by exposure interval
# Experimental: The pooled efficacy analyses presented within this section include the outlier (Pool 2). […] Pooled efficacy analyses excluding the outlier subject (Pool 2A) were also performed.
# No long-term data for the alglucosidase alfa/placebo group are available, as all subjects switched to cipaglucosidase alfa/miglustat in Study ATB200-07.
# Efficacy data from the 3 adult Pompe disease clinical studies were pooled and analyzed to further support the long-term efficacy of cipaglucosidase alfa/miglustat in adult subjects. Data from non-ambulatory subjects (Study ATB200-02 Cohort 2) were not included in the pool as there was little overlap of efficacy endpoints for this group with the various ambulatory groups, such as 6MWD and lower MMT.
# The 3 adult Pompe disease clinical studies were pooled as follows: • The cipaglucosidase alfa/miglustat treatment group consists of: • All ambulatory subjects in Study ATB200-02 (Cohorts 1, 3, and 4), • All subjects randomized to the cipaglucosidase alfa/miglustat treatment group in Study ATB200-03, and • All subjects enrolled in Study ATB200-07. • The alglucosidase alfa/placebo treatment group consists of: • All subjects randomized to the ERT treatment group in Study ATB200-03.
# [2] = tested on: adult subjects with late-onset Pompe disease (LOPD); test: Study ATB200-03 (PROPEL): PROMIS-Physical Function; assay type: in vivo, human; settings: for CHG to Week 52 in PROMIS-Physical Function total score, LS Mean: MMRM, actual time point of assessments; for PROMIS-Physical Function Short Form 20a total score CHG, LS means (SE) / PROMIS-Physical Function Short Form 20a total score CHG, Difference of LS means (SE) (cipaglucosidase alfa/miglustat − alglucosidase alfa/placebo): Week 52, ANCOVA
# Experimental: The test for the primary endpoint was conducted first at the 1-sided 0.025 significance level, and if significant, the ordered key secondary endpoints were similarly tested at the same significance level. The statistical significance of the key secondary endpoints was interpreted following a hierarchical testing order, each at the 1-sided alpha level of 0.025. […] Primary analyses of efficacy were performed using the mixed-effect model for repeated measures (MMRM) for 6MWD in Intent-to-treat Observed Population (ITT) that includes all available, observed data without any missing data imputation (ITT-OBS) and analysis of covariance (ANCOVA) for all other endpoints in the Intent-to-Treat-Last Observation Carried Forward (ITT-LOCF) Population. A nonparametric randomization based ANCOVA was specified as the first sensitivity analysis for 6MWD and FVC. […] For the purposes of data presentation in this document, 2-sided p-values are reported hereafter, except as otherwise noted.
# [3] = exposure interval >15 to ≤24 months, Pool 2, including the outlier
# [4] = exposure interval >24 months, Pool 2, including the outlier
# [5] = exposure interval ≤15 months, Pool 2, including the outlier
# [6] = Week 52-LOCF, ERT-experienced Population
# [7] = Week 52-LOCF, ERT-naïve Subjects excluding Subject 4005-2511
# [8] = Week 52-LOCF, ITT excluding Subject 4005-2511
substance,measurement,setting,value
"ATB200/miglustat: two-component therapy: cipaglucosidase alfa (ATB200) administered in conjunction with miglustat (AT2221), a stabilizer of cipaglucosidase alfa",mean (SD) improvement in % predicted 6MWD,[1]; after at least 24 months (n=70),3.3 (10.84)
same,mean (SD) improvement in 6MWD,[1]; exposure >15 to ≤24 months (n=108),17.7 (55.61) meters
same,mean (SD) improvement in 6MWD,[1]; exposure >24 months (n=70),9.7 (67.13) meters
same,"6MWD Baseline, Mean",[1]; [3],366.33 meters
same,"6MWD Baseline, Median",[1]; [3],369.25 meters
same,"6MWD change from baseline, mean",[1]; [3],17.67 meters
same,"6MWD change from baseline, median",[1]; [3],11.75 meters
same,"6MWD Baseline, Mean",[1]; [4],367.77 meters
same,"6MWD Baseline, Median",[1]; [4],376.43 meters
same,"6MWD change from baseline, mean",[1]; [4],9.67 meters
same,"6MWD change from baseline, median",[1]; [4],5.23 meters
same,"6MWD Baseline, Mean","[1]; exposure interval ≤15 months, Pool 2, Efficacy Population including the outlier",367.10 meters
same,"6MWD Baseline, Median",[1]; [5],373.75 meters
same,"6MWD change from baseline, median",[1]; [5],12.00 meters
same,"6MWD change from baseline, mean","[1]; exposure interval ≤15 months, last available post-baseline value − baseline, Pool 2, including the outlier",17.13 meters
same,mean (SD) improvement in 6MWD,[1]; exposure ≤15 months (n=143),17.1 (44.92) meters
same,"PROMIS-Physical Function Short Form 20a total score Absolute Value, Median","[2]; Baseline, ITT, ERT-naïve Subjects excluding Subject 4005-2511",76.00
same,"PROMIS-Physical Function Short Form 20a total score Absolute Value, Mean","[2]; Baseline, ITT, ERT-naïve Subjects excluding Subject 4005-2511, score 20 to 100, higher = less impact",74.65
same,mean (SD) change in PROMIS-Physical Function total score from baseline to Week 52,[2]; ERT-experienced Population,1.8 (7.18)
same,mean (SD) change in PROMIS-Physical Function total score from baseline to Week 52,[2]; ERT-naïve excluding Subject 4005-2511,2.5 (8.62)
same,"Change in PROMIS-Physical Function total score baseline to Week 52, LS means (SE) from ANCOVA","[2]; ITT-LOCF, ERT-naïve Subjects excluding Subject 4005-2511",1.87 (1.917)
same,"CHG to Week 52 in PROMIS-Physical Function total score, LS Mean",[2]; ITT-OBS excluding Subject 4005-2511 (overall),2.2
same,"CHG to Week 52 in PROMIS-Physical Function total score, LS Mean","[2]; ITT-OBS excluding Subject 4005-2511, ERT-naïve Subjects",2.6
same,"CHG to Week 52 in PROMIS-Physical Function total score, LS Mean","[2]; ITT-OBS, ERT-experienced Subjects",2.0
same,"PROMIS-Physical Function Short Form 20a total score Absolute Value, Mean (SD)",[2]; [6],66.19 (12.325)
same,"PROMIS-Physical Function Short Form 20a total score Absolute Value, Median",[2]; [6],66.00
same,"PROMIS-Physical Function Short Form 20a total score CHG, Mean (SD)",[2]; [6],1.76 (7.179)
same,"PROMIS-Physical Function Short Form 20a total score CHG, Median",[2]; [6],0.50
same,"PROMIS-Physical Function Short Form 20a total score Absolute Value, Mean",[2]; [7],77.15
same,"PROMIS-Physical Function Short Form 20a total score Absolute Value, Median",[2]; [7],77.50
same,"PROMIS-Physical Function Short Form 20a total score CHG (change from baseline), Mean",[2]; [7],2.50
same,"PROMIS-Physical Function Short Form 20a total score CHG (change from baseline), Median",[2]; [7],0.00
same,"PROMIS-Physical Function Short Form 20a total score Absolute Value, Mean (SD)",[2]; [8],68.80 (12.954)
same,"PROMIS-Physical Function Short Form 20a total score Absolute Value, Median",[2]; [8],68.00
same,"PROMIS-Physical Function Short Form 20a total score CHG, Mean (SD)",[2]; [8],1.94 (7.498)
same,"PROMIS-Physical Function Short Form 20a total score CHG, Median",[2]; [8],0.00
same,"PROMIS-Physical Function Short Form 20a total score CHG, LS means (SE)",[2]; ITT-LOCF excluding Subject 4005-2511,1.98 (0.921)
same,"PROMIS-Physical Function Short Form 20a total score CHG, Difference of LS means (SE) (cipaglucosidase alfa/miglustat − alglucosidase alfa/placebo)","[2]; ITT-LOCF excluding Subject 4005-2511, 2-sided p 0.276",1.87 (1.706)
same,"PROMIS-Physical Function Short Form 20a total score CHG, LS means (SE)","[2]; ITT-LOCF, ERT-experienced Population",1.90 (1.071)
same,"PROMIS-Physical Function Short Form 20a total score CHG, Difference of LS means (SE) (cipaglucosidase alfa/miglustat − alglucosidase alfa/placebo)","[2]; ITT-LOCF, ERT-experienced Population, 2-sided p 0.110",3.14 (1.948)
